Legend:
Assay type in all cases: in vivo
Amaranthus retroflexus [1] = experiment: Herbicidal post-emergence action (greenhouse pots), AMARE; conditions: 1280 g/ha, visual rating about 3 weeks after treatment vs untreated controls
Procedure, shortened: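 Post-emergence greenhouse test, sandy loam pots; one-leaf stage (2–3 wk after sowing); WP/EC as aqueous spray + 0.5% additive, 600 L/ha water, 1280 g/ha. Visual % activity ~3 wk post-treatment vs untreated (100% = plants dead).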

Setaria viridis [2] = experiment: Herbicidal pre-emergence action (greenhouse pots), SETVI; conditions: 1280 g/ha, visual scoring after about 3 weeks vs untreated controls
Procedure, shortened: (§1)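 Each sandy loam pot was doubly sown with weeds, then covered with soil and treated on the soil surface at 1280 g/ha. The spray liquid contained 0.5% additive at a water rate of 600 L/ha. Effects were rated visually as % relative to untreated plants after about 3 weeks under greenhouse conditions.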

Stellaria media [3] = experiment: Herbicidal post-emergence action (greenhouse pots), STEME; conditions: 1280 g/ha, visual rating about 3 weeks after treatment vs untreated controls
From the text: (§2) In the examples and tables below, the following abbreviations are used: • Undesired Plants/Weeds: • ABUTH: Abutilon theophrasti • AGSTE: Agrostis tenuis • AMARE Amaranthus retroflexus • ECHCG: Echinochloa crus-galli • LOLRI: Lolium rigidum • MATIN: Matricaria inodora • POAAN: Poa annua • SETVI: Setaria viridis • STEME: Stellaria media A. Herbicidal Early Post-Emergence Action Seeds of mono- and dicotyledonous weed plants were placed in plastic pots in sandy loam soil (doubly sown with in each case one species of mono- or dicotyledonous weed plants per pot), covered with soil and cultivated in a greenhouse under controlled growth conditions. 2 to 3 weeks after sowing, the test plants were treated at the one-leaf stage. The compounds of the invention, formulated in the form of wettable powders (WP) or as emulsion concentrates (EC), were applied onto the green parts of the plants as aqueous suspension or emulsion with addition of 0.5% additive at a water application rate of 600 liters per hectare (converted). After the test plants had been kept in the greenhouse under optimum growth conditions for about 3 weeks, the activity of the preparations was rated visually in comparison to untreated controls. For example, 100% activity=the plants have died, 0% activity=like untreated control plants. Tables B1-B8 below show the effects of selected compounds of the general formula (I) according to Table 1 above on various harmful plants and an application rate corresponding to 1280 g/ha, which were obtained by the experimental procedure mentioned above.

Matricaria inodora = experiment: Herbicidal pre-emergence action (greenhouse pots), MATIN; conditions: 1280 g/ha, visual scoring after about 3 weeks vs untreated controls
From the text: (§3) In the examples and tables below, the following abbreviations are used: • Undesired Plants/Weeds: • ABUTH: Abutilon theophrasti • AGSTE: Agrostis tenuis • AMARE Amaranthus retroflexus • ECHCG: Echinochloa crus-galli • LOLRI: Lolium rigidum • MATIN: Matricaria inodora • POAAN: Poa annua • SETVI: Setaria viridis • STEME: Stellaria media A. Herbicidal Early Post-Emergence Action Seeds of mono- and dicotyledonous weed plants were placed in plastic pots in sandy loam soil (doubly sown with one species each of mono- or dicotyledonous weed plants per pot) and covered with soil. The compounds of the invention, formulated in the form of wettable powders (WP) or as emulsion concentrates (EC), were then applied onto the surface of the covering soil as aqueous suspension or emulsion with addition of 0.5% additive at a water application rate of 600 liters per hectare (converted). After the treatment, the pots were placed in a greenhouse and kept under good growth conditions for the test plants. After about 3 weeks, the effect of the preparations was scored visually in comparison with untreated controls as percentages. For example, 100% activity=the plants have died, 0% activity=like untreated control plants. Tables C1-C8 below show the effects of selected compounds of the general formula (I) according to Table 1 above on various harmful plants and an application rate corresponding to 1280 g/ha, which were obtained by the experimental procedure mentioned above.

Echinochloa crus-galli [4] = experiment: Herbicidal pre-emergence action (greenhouse pots), ECHCG; conditions: 1280 g/ha, visual scoring after about 3 weeks vs untreated controls
From the text: as §3

Agrostis tenuis = experiment: Herbicidal early post-emergence action (96-well microtiter plates), AGSTE; conditions: 1900 g/ha, scored 9 to 12 days after treatment, 100% = plants have died, 0% = like untreated control plants
Procedure, shortened: (§4)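 Activity was scored by eye 9 to 12 days after treatment (100% = plants dead, 0% = like untreated controls). Spraying used emulsion concentrates at 1900 g/ha in 2200 L/ha water, applied to cotyledon-stage seedlings raised 5 to 7 days in quartz sand in 96-well plates under controlled conditions.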

Poa annua [5] = experiment: Herbicidal early post-emergence action (96-well microtiter plates), POAAN; conditions: 1900 g/ha, scored 9 to 12 days after treatment, 100% = plants have died, 0% = like untreated control plants
Procedure, shortened: as §4

Setaria viridis [6] = experiment: Herbicidal post-emergence action (greenhouse pots), SETVI; conditions: 1280 g/ha, rated after about 3 weeks, 100% = plants have died, 0% = like untreated control plants
From the text: as §2

Amaranthus retroflexus [7] = experiment: Herbicidal pre-emergence action (greenhouse pots), AMARE; conditions: 1280 g/ha, visual scoring after about 3 weeks vs untreated controls
Procedure, shortened: as §1

Stellaria media [8] = experiment: Herbicidal pre-emergence action (greenhouse pots), STEME; conditions: 1280 g/ha, visual scoring after about 3 weeks vs untreated controls
Procedure, shortened: as §1

Echinochloa crus-galli [9] = experiment: Herbicidal post-emergence action (greenhouse pots), ECHCG; conditions: 1280 g/ha, rated after about 3 weeks, 100% = plants have died, 0% = like untreated control plants
From the text: as §2

Poa annua [10] = experiment: Herbicidal pre-emergence action (greenhouse pots), POAAN; conditions: 1280 g/ha, visual scoring after about 3 weeks vs untreated controls
Procedure, shortened: as §1

Abutilon theophrasti [11] = experiment: Herbicidal post-emergence action (greenhouse pots), ABUTH; conditions: 1280 g/ha, visual rating about 3 weeks after treatment vs untreated controls
From the text: as §2

Abutilon theophrasti [12] = experiment: Herbicidal pre-emergence action (greenhouse pots), ABUTH; conditions: 1280 g/ha, visual scoring after about 3 weeks vs untreated controls
From the text: as §3

Poa annua [13] = experiment: Herbicidal post-emergence action (greenhouse pots), POAAN; conditions: 1280 g/ha, visual rating about 3 weeks after treatment vs untreated controls
From the text: as §2

SMILES | herbicidal activity AMARE (Amaranthus retroflexus [1]) [%] | herbicidal activity SETVI (Setaria viridis [2]) [%] | herbicidal activity STEME (Stellaria media [3]) [%] | herbicidal activity MATIN (Matricaria inodora) [%] | herbicidal activity ECHCG (Echinochloa crus-galli [4]) [%] | AGSTE (herbicidal activity, scored visually in comparison to untreated controls) (Agrostis tenuis) [%] | POAAN (herbicidal activity, scored visually in comparison to untreated controls) (Poa annua [5]) [%] | SETVI (herbicidal activity, rated visually in comparison to untreated controls) (Setaria viridis [6]) [%] | herbicidal activity AMARE (Amaranthus retroflexus [7]) [%] | herbicidal activity STEME (Stellaria media [8]) [%] | ECHCG (herbicidal activity, rated visually in comparison to untreated controls) (Echinochloa crus-galli [9]) [%] | herbicidal activity POAAN (Poa annua [10]) [%] | herbicidal activity ABUTH (Abutilon theophrasti [11]) [%] | herbicidal activity ABUTH (Abutilon theophrasti [12]) [%] | herbicidal activity POAAN (Poa annua [13]) [%]
N#Cc1cccc(Nc2ncc(F)cn2)c1Oc1ccc(Cl)cc1F [Example 1-275] | 100 | 100 | 100 | 90 | 90 | 80 | 100 | 90 | 100 | 100 | 90 | 100 | 90 |  | 
N#Cc1cccc(Nc2ncc(F)cn2)c1Oc1ccc(F)cc1F [Example 1-270] | 100 | 100 | 100 | 100 | 100 | 80 | 80 | 90 | 100 | 100 | 90 | 100 | 90 |  | 
N#Cc1cccc(Nc2ncc(Cl)cn2)c1Oc1ccc(F)cc1F [Example 1-289] | 100 | 100 | 100 | 100 |  | 80 | 80 | 90 | 100 | 100 | 100 | 100 | 90 |  | 
N#Cc1ccc(Oc2c(C#N)cccc2Nc2ncc(F)cn2)cc1 [Example 1-280] | 100 | 100 | 100 | 100 | 100 | 100 | 100 |  | 100 | 100 |  | 100 |  | 100 | 
N#Cc1cccc(Nc2ncc(F)cn2)c1Oc1cccc(Cl)c1 [Example 1-268] | 90 |  |  |  |  | 100 | 80 |  | 90 |  |  |  |  | 90 | 
N#Cc1cccc(Nc2ncc(F)cn2)c1Oc1cccc(F)c1 [Example 1-266] | 100 | 100 | 100 | 100 | 90 | 80 | 100 |  | 100 | 100 | 100 | 100 | 100 |  | 
N#Cc1cccc(Nc2ncc(Cl)cn2)c1Oc1ccc(Cl)cc1 [Example 1-288] | 100 | 100 |  |  | 90 | 80 | 80 | 90 | 100 | 100 | 100 | 100 | 90 |  | 100
N#Cc1ccc(Oc2c(C#N)cccc2Nc2ncccn2)cc1 [Example 1-261] | 100 | 100 |  | 100 | 100 | 80 | 80 |  | 100 | 100 |  | 100 |  | 100 | 
N#Cc1cccc(Nc2ncc(Cl)cn2)c1Oc1ccc(C(F)(F)F)cc1 [Example 1-298] | 100 | 100 | 100 | 90 |  | 80 | 80 | 90 | 100 | 100 |  | 100 | 90 |  | 90

— patent US12415786B2, “Substituted 2-heteroarylaminobenzenes and the salts thereof and their use as herbicidal agents” (Bayer Aktiengesellschaft, priority 2019, dated 2025)
